{
  "source": "patent US9085557B2",
  "about": "“Quinolylpiperazino substituted thiolactone compounds and process for the preparation thereof” (Council of Scientific and Industrial Research, priority 2010, dated 2015)",
  "key": {"[1]": {"tested_on": "M. tuberculosis H37Rv (ATCC 27294)", "test": "MIC determination by broth dilution against M. tuberculosis H37Rv", "format": "cell-based, Mycobacterium tuberculosis", "settings": "for in vitro activity (words): M. tuberculosis H37Rv / sensitive isolates"}, "[2]": {"tested_on": "M. tuberculosis XDR-1 (XDR- strain)", "test": "microbe, parasite or virus in culture", "format": "cell-based, Mycobacterium tuberculosis", "settings": "for in vitro activity (words): XDR clinical isolates"}, "[3]": {"tested_on": "M. tuberculosis -617 (MDR- strain)", "test": "microbe, parasite or virus in culture", "format": "cell-based, Mycobacterium tuberculosis", "settings": "for in vitro activity (words): MDR clinical isolates"}, "AML-12 cells": {"tested_on": "AML-12 cells", "test": "Cytotoxicity assay (MTT) on cell line AML-12", "format": "cell-based", "protocol": "The study was carried out using AML-12 cells line (ATCC-USA). Cells were grown in Dulbecco's Modified Eagle's Medium (DMEM) containing 10% fetal calf serum (FCS) and supplemented with 100 units/ml penicillin, 100 μg/ml streptomycin, 0.005 mg/ml insulin, 0.005 mg/ml transferrin, 5 ng/ml selenium, and 40 ng/ml dexamethasone, in a humidified atmosphere in 5% CO2 at 37° C., and were sub-cultured at 1:5 ratio once a week.\nCells were plated at a density of 3×10^4 cells/cm^2 and maintained in culture medium for 12 h after trypsinization. Cells were seeded onto 96-well plates and FCS was reduced to 5% for the experiment. Stock solutions of compound 3f were prepared fresh to avoid oxidation. Cells were incubated with the compounds (2-100 μg/ml) for 24 hrs.\nAfter the completion of treatment, the medium was removed and cell viability was evaluated by assaying for the ability of functional mitochondria to catalyze the reduction of 3-(4,5-dimethylthiazol-2-yl)-2,5-diphenyltetrazolium bromide (MTT) to form formazan salt by mitochondrial dehydrogenases, and determined by Elisa reader at 565 nm (Multiskan Spectrum; Thermo Electron Corporation, USA). Percentage cytotoxicity was calculated with respect to the untreated cells."}, "M. tuberculosis H37Rv": {"tested_on": "M. tuberculosis H37Rv", "test": "In vivo efficacy in murine model of M. tuberculosis H37Rv infection", "design": "species or system mice (BALB/c)", "protocol": "The Compound 3f used in this study ([…]). The compound 3f was tested in vivo at 25 mg/kg. Rifampicin at 20 mg/kg was also tested as positive control. For in vivo studies compound and rifampicin was dissolved in pure DMSO and formulation was prepared 50% PEG in water for oral administration. The final concentration of DMSO was less than 0.1% v/v.\nThe institutional animal Ethics committee of the Indian Institute of Integrative Medicine (CSIR, Jammu) approved all experimental protocols with animals and the use of animals. The animals were bred and maintained under standard husbandry conditions; viz. humidity, temperature (25±2° C.). 8-week-old female (BALB/c) mice 20-22 gm by weight were used for the efficacy studies. Animals were allowed 1 week of acclimation before intake into experimental studies. Feed and water were given ad libitum.\nInfection of M. tuberculosis:\nM. tuberculosis (H37Rv) for infection was grown by the culturing of bacteria from Lowenstein-Jensen slant in Middlebrooke 7H9 medium on a rotary shaker for 10 days at 37° C. […] The mice were sacrificed after week post infection (early control), and bacterial numbers in the lungs were determined by macerating the organs (lung) and plating serial tenfold serial dilution on Middlebrook 7H10 agar plates in triplicates. […]\nEight infected mice were sacrificed from the control group 7 day after the infection (before the initiation of treatment) to obtain the initial CFU load of M. tuberculosis H37Rv at the initiation of treatment. […] Viable bacteria were quantitated by plating 10-fold serial dilutions in duplicates on Middlebrook, 7H10 agar supplemented with 10% OADC (oleic acid albumin dextrose catalase, Becton Dickinson, Sparks, Md.) and incubated at 37° C. in 5% CO2 for 4-6 weeks. CFU per organ sample was counted and expressed as log10 CFU per organ. CFU during in-vivo studies were determined on Middlebrook 7H10 plates supplement with 10% OADC containing Vancomycin 10 μg/ml, Amphoterecin 10 μg/ml, Nalidaxic acid 25 μg/ml. […]"}},
  "data": [
    {"smiles": "CC1=C(OCCCCCCCCCCCCN2CCN(c3ccnc4cc(C(F)(F)F)ccc34)CC2)C(C)SC1=O", "note": "(stereo not drawn) [Compound 3f, 3,5-dimethyl-4-[(12-4-[7-(trifluoromethyl)-4-quinolyl]piperazinododecyl)oxy]-5H-thiophen-2-one]", "values": [
      {"measurement": "in vitro activity (words)", "setting": "[1]; listed as Compound 3f", "value": "active"},
      {"measurement": "in vitro activity (words)", "setting": "[1]; listed as compound 3f", "value": "exhibits in vitro activity"},
      {"measurement": "MIC", "setting": "[1]; M. tuberculosis H37Rv, broth dilution, 3 weeks at 37° C., read visually (no turbidity)", "value": 0.5, "unit": "µg/mL"},
      {"measurement": "MIC", "setting": "[2]; M. tuberculosis XDR-1 clinical isolate, broth dilution, 3 weeks", "value": 0.5, "unit": "µg/mL"},
      {"measurement": "in vitro activity (words)", "setting": "[2]; listed as Compound 3f", "value": "active"},
      {"measurement": "in vitro activity (words)", "setting": "[2]; listed as compound 3f", "value": "exhibits in vitro activity"},
      {"measurement": "MIC", "setting": "[3]; M. tuberculosis 617 MDR clinical isolate, broth dilution, 3 weeks", "value": 0.5, "unit": "µg/mL"},
      {"measurement": "in vitro activity (words)", "setting": "[3]; listed as Compound 3f", "value": "active"},
      {"measurement": "in vitro activity (words)", "setting": "[3]; listed as compound 3f", "value": "exhibits in vitro activity"},
      {"measurement": "IC50 (extrapolate), cytotoxicity on AML-12", "setting": "AML-12 cells", "value": "IC50 > 433 μg/ml (extrapolate)"},
      {"measurement": "type of in vivo activity (log CFU in lungs versus early control)", "setting": "M. tuberculosis H37Rv; 25 mg/kg oral, 4 weeks", "value": "bacteriostatic activity"},
      {"measurement": "Log10 CFU/left Lung (mean ± SD)", "setting": "M. tuberculosis H37Rv; BALB/c mice, intranasal infection, treatment from 1 week post infection, PO once daily for 4 weeks, RIF 20 mg/kg, 3f 25 mg/kg", "value": "6.2 ± 0.34", "unit": "Log10 CFU/left Lung"}
    ]}
  ]
}
